Results taken from patent US7598244B2, “[1,2,4]triazolo[1,5,a]pyrimidin-2-ylurea derivative and use thereof” (Nippon Kayaku Kabushiki Kaisha, priority 2003, dated 2009).
Like-named read-outs stand apart in the source and are kept apart here.

Key:
Type in all cases: cell-based
[1] = tested on: human dendritic cells cultured with human allogenic T cells; experiment: Effect on the ability of human dendritic cells to induce the growth of allogenic T cells ([3H]-thymidine incorporation); conditions: Homo sapiens; dendritic cells treated 3 days with test compound and TNF-α, then 5 days with allogenic T cells; read-out: IC50 (inhibition of DNA synthesis of lymphocytes)
Description: Effect on the Ability of Human Dendritic Cells to Induce the Growth of Allogenic T Cells
Immature dendritic cells were cultured with a test compound and TNF-α for 3 days by the same method as that described in Test Example 2. The obtained dendritic cells (2.5×10^3 cells/50 μl/well) were cultured together with human allogenic T cells (2.0×10^5 cells/150 μl/well) in a 96-well flat bottom plate at 37° C. for 5 days in an incubator containing 5% carbon dioxide. Thereafter, [^3H]-thymidine (Amersham Pharmacia Biotech) was added thereto at an amount of 1 μCi/10 μl/well, 16 hours before completion of the culture. After completion of the culture, cells were captured on a glass filter using a cell harvester (Skatron Instrument) and then dried. Thereafter, Scintillator ACS-II (Amersham Pharmacia Biotech) was added thereto, and the radioactivity of [^3H]-thymidine incorporated into the cells were then measured using a liquid scintillation counter. The inhibition rate of the DNA synthesis of lymphocytes was calculated using the following formula (3). Thereafter, the concentration of a test compound necessary for inhibition of 50% (IC50 value) was obtained.
[formula] • Eexp: The amount of [^3H]-thymidine incorporated into cultured cells containing test compound • Cexp: The amount of [^3H]-thymidine incorporated into cultured cells containing no test compounds

CD83 = experiment: Expression of antigen-presenting and costimulatory molecules of human peripheral blood-derived dendritic cells: CD83
Description: (§1) Action on Expression of Antigen-Presenting Molecules and Costimulatory Molecules of Human Peripheral Blood-Derived Dendritic Cells
(§2) The dendritic cells obtained by the same method as in Test Example 2 were suspended in RPMI 1640 comprising 10% FCS containing 500 U/ml GM-CSF, 50 ng/ml IL-4, and 100 U/ml human recombinant tumor necrosis factor (2.5×10^6 cells/ml). Thereafter, the suspension was inoculated into a 6-well plate at an amount of 2.0 ml/well, and the test compound was then added thereto. The mixture was cultured at 37° C. for 3 days in an incubator containing 5% carbon dioxide. Thereafter, the suspended cells were recovered. The cells were then stained with fluoroisothiocyanate-labeled mouse monoclonal antibodies reacting with MHC class I (Bechman Coulter), CD1a (Immunotech), CD40 (Pharmingen), CD80 (Pharmingen), and CD83 (Immunotech). Thereafter, mean fluorescence intensity and the ratio of positive cells were measured by flow cytometry. The expression level was calculated by the formula “the mean fluorescence intensity x the ratio of positive cells,” and the inhibition rate of the surface antigen expression level of dendritic cells was then obtained by the following formula (8).
(§3) [formula] • Eexp: Expression level of surface antigens of dendritic cells cultured in the presence of test compound • Cexp: Expression level of surface antigens of dendritic cells cultured in the absence of test compound

MHC class II = experiment: Expression of antigen-presenting and costimulatory molecules of human peripheral blood-derived dendritic cells: MHC class II
MHC class I = experiment: Expression of antigen-presenting and costimulatory molecules of human peripheral blood-derived dendritic cells: MHC class I
Description: as §1, §2, §3

CD40 = experiment: Expression of antigen-presenting and costimulatory molecules of human peripheral blood-derived dendritic cells: CD40
Description: as §1, §2, §3

mouse splenic cells = experiment: Inhibitory action on blastogenesis of mouse splenic cells ([3H]-thymidine incorporation); conditions: Mus musculus, Lymphocyte, 72 hours
Description: Inhibitory Action on Blastogenesis of Mouse Splenic Cells
The spleen was excised from each of BALB/c mice (Charles River Japan; female; 10-week-old), and it was allowed to pass through a mesh to obtain a single cell suspension. This single cell suspension was prepared to be 1.0×10^6 cells/ml. Thereafter, 200 μl of the suspension was fractionated into each well of a 96-well plate. Thereafter, as blastogenic stimulation, 5 μg/ml concanavalin A (Pharmacia) or 25 μg/ml Escherichia coli-derived lipopolysaccharide (DIFCO) was added to the well, and then, a solution containing a test compound with each different concentration was further added thereto at an amount of 20 μl/well. The obtained mixture was cultured at 37° C. for 72 hours in an incubator containing 5% carbon dioxide. Thereafter, a 1 μCi/10 μl/well [^3H]-thymidine solution was added thereto 64 hours after initiation of the culture. After completion of the culture (72 hours later), the cells were captured on a filter using a cell harvester, and they were then dried. Thereafter, scintillator was added thereto, and the radioactivity of [^3H]-thymidine incorporated into the cells was then measured using a liquid scintillation counter. The inhibition rate of the DNA synthesis was calculated using the aforementioned formula (3). Thereafter, the concentration of a test compound necessary for inhibition of 50% (IC50 value) was obtained.

[2] = tested on: MHC class I molecules of T1 cells (human lymphoma cell line 174×CEM.); experiment: Effect on expression of MHC class I from T1 cells (flow cytometry, MFI); conditions: 3 days culture
In short: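 EC20 is the compound level that lowers MHC class I MFI by 20% relative to compound-free cultures. Read-out was flow cytometry after FITC W6/32 staining.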

CD1a = experiment: Expression of antigen-presenting and costimulatory molecules of human peripheral blood-derived dendritic cells: CD1a; conditions: Analyte 1 (dendritic cells of one healthy subject), 3 days
Description: as §1
The dendritic cells obtained by the same method as in Test Example 2 were suspended in RPMI 1640 comprising 10% FCS containing 500 U/ml GM-CSF, 50 ng/ml IL-4, and 100 U/ml human recombinant tumor necrosis factor (2.5×10^6 cells/ml). Thereafter, the suspension was inoculated into a 6-well plate at an amount of 2.0 ml/well, and the test compound was then added thereto. The mixture was cultured at 37° C. for 3 days in an incubator containing 5% carbon dioxide. Thereafter, the suspended cells were recovered. The cells were then stained with fluoroisothiocyanate-labeled mouse monoclonal antibodies reacting with MHC class I (Bechman Coulter), CD1a (Immunotech), CD40 (Pharmingen), CD80 (Pharmingen), and CD83 (Immunotech). Thereafter, mean fluorescence intensity and the ratio of positive cells were measured by flow cytometry. The expression level was calculated by the formula “the mean fluorescence intensity x the ratio of positive cells,” and the inhibition rate of the surface antigen expression level of dendritic cells was then obtained by the following formula (8). […]

Structure (SMILES): CC(C)NC(=O)Nc1nc2nccc(-c3cccs3)n2n1 [Example 029, 1-isopropyl-3-(7-thiophen-2-yl[1,2,4]triazolo[1,5-a]pyrimidin-2-yl)urea]
- IC50 [1]: 3480 nM
- Expression inhibition rate by test compound (%), CD83 (CD83; Analyte 1, 3 days): 62.6%
- Expression inhibition rate by test compound (%), CD83 (CD83; Analyte 2, 3 days): 88.6%
- Expression inhibition rate by test compound (%), CD83 (CD83; Analyte 3, 3 days): 42.7%
- Expression inhibition rate by test compound (%), MHC class II (MHC class II; Analyte 1, 3 days): 65.6%
- Expression inhibition rate by test compound (%), MHC class II (MHC class II; Analyte 2, 3 days): 93.3%
- Expression inhibition rate by test compound (%), MHC class II (MHC class II; Analyte 3, 3 days): 50.2%
- Expression inhibition rate by test compound (%), MHC class I (MHC class I; Analyte 1, 3 days): 72.3%
- Expression inhibition rate by test compound (%), MHC class I (MHC class I; Analyte 2, 3 days): 63.9%
- Expression inhibition rate by test compound (%), MHC class I (MHC class I; Analyte 3, 3 days): 72.6%
- Expression inhibition rate by test compound (%), CD40 (CD40; Analyte 1, 3 days): 10.8%
- Expression inhibition rate by test compound (%), CD40 (CD40; Analyte 2, 3 days): −5.4%
- Expression inhibition rate by test compound (%), CD40 (CD40; Analyte 3, 3 days): 12.9%
- IC50 (mouse splenic cells; 5 μg/ml concanavalin A, read-out: Lymphocyte blastogenesis IC50 (μM), ConA stimulation): 0.71 µM
- IC50 (mouse splenic cells; 25 μg/ml Escherichia coli-derived lipopolysaccharide, read-out: Lymphocyte blastogenesis IC50 (μM), LPS stimulation): 0.3 µM
- EC20 (concentration necessary for suppressing 20% of the expression level of MHC class I molecules) [2]: 234 nM
- Expression inhibition rate by test compound (%), CD1a (CD1a): 55.6%
